Legend:
[1] = xn = mol fraction of the nth substance listed; conditions: 373.15 K; 93 kPa; Liquid; Vibrating tube method; x1 = 1
[2] = molar heat capacity at constant pressure; xn = mol fraction of the nth substance listed; conditions: Liquid, Flow calorimetry

c1ccc(Oc2ccccc2)cc1 [diphenyl ether] + c1ccc(-c2ccccc2)cc1
Conditions | mass density [kg/m3]
[1] | 1005.2

molar heat capacity at constant pressure [J/K/mol], [2]
Conditions | 100 kPa | 5000 kPa | 10000 kPa | 15000 kPa | 20000 kPa | 25000 kPa
293.15 K, x1 = 0.705 | 260.48 | 258.49 | 256.34 | 255.18 | 253.86 | 252.7
313.15 K, x1 = 0.55 | 273.53 | 272.22 | 270.76 | 269.94 | 269.29 | 268.96
313.15 K, x1 = 0.705 | 270.74 | 269.58 | 267.76 | 267.1 | 265.94 | 265.11
313.15 K, x1 = 0.85 | 272.02 | 270.67 | 270.17 | 269.67 | 269.5 | 269.33
313.15 K, x1 = 1 | 274.37 | 273.52 | 273.18 | 272.5 | 272.16 | –
333.15 K, x1 = 0.55 | 285.75 | 284.45 | 284.29 | 283.96 | 283.8 | –
333.15 K, x1 = 0.705 | 279.34 | 278.02 | 276.86 | 275.54 | 274.21 | 273.39
333.15 K, x1 = 0.85 | 285.1 | 284.6 | 284.27 | 284.1 | 283.76 | 283.43
333.15 K, x1 = 1 | 286.97 | 285.95 | 284.93 | 284.59 | 283.39 | 282.71
353.15 K, x1 = 0.55 | 295.7 | 294.88 | 294.55 | 294.39 | 293.25 | 293.09
353.15 K, x1 = 0.705 | 290.93 | 289.27 | 287.62 | 286.96 | 285.47 | 283.98
353.15 K, x1 = 0.85 | 299.2 | 297.86 | 297.69 | 297.35 | 297.19 | 296.68
353.15 K, x1 = 1 | 299.05 | 298.03 | 296.84 | 296.33 | 295.48 | 294.63
